The record followed here is patent US6403554B2, “Polyunsaturated fatty acid derivatives and their use” (Ardenia Investments Ltd., priority 1998, dated 2002).

Entries after “also recorded” stand apart in the source; their conditions may differ.

Holding throughout (type): in vivo, C57B1/6 mice
Experiment [1] has as its system antibody-forming cells (AFC) in the spleen. In words: Humoral immune response: counting antibody-forming cells (AFC) in the spleen according to Cunningham, mice immunised with sheep erythrocytes. The following applies: compound alone. The method, then:
(§1) 0.15 ml of compound 10 was administered intravenously to 6 mice females of CS7B1/6 line (weight 18-22 g) in doses of 45.5, 91 and 136.5 μg of compound 10 per capita for each testing group according to the dose. Simultaneously, a suspension of 5·10^7 sheep erythrocytes was injected intraperitoneally (0.2 ml per capita). Mice in the control group were injected intravenously with equal volume of saline. The effects of compound 10 on humoral immune response were analyzed both by counting the quantity of AFC in the spleen according to Cunningham (per 10^6 spleen cells and per spleen) and estimating the titers of hemagglutining antibodies in serum of the animals (Cunningham A. J., Nature, 1965, Vol.207, No 5001. P.1106-1107), while the titers of hemagglutinating antibodies were evaluated according to litterature (Evans J. et al., Cell, 1974; Vol 3., p.153-158, Feizi T., Menger E., Transfusion, 1970, Vol. 10, p.33-35,).
(§2) 0.15 ml of compound 11 was administered intravenously to 6 female mice of the C57B1/6 line (weight 18-22 g) in doses of 45.5, 91 and 136.5 μg of compound 11 per capita for each testing group according to the dose. Simultaneously, a suspension of 5·10^7 sheep erytrocytes was injected intraperitoneally (0.2 ml per capita). Mice in the control group were injected intravenously with an equal volume of saline. The effects of compound 11 on humoral immune response was analysed both by counting the quantity of AFC in the spleen according to Cunningham (per 10^6 spleen cells and per spleen) and estimating the titers of hemagglutining antibodies in serum of the animals.
as §2, with “12” for “11”, “erythrocytes” for “erytrocytes”, “analyzed” for “analysed”
as §2, with “compound 8” for “compound 11”, “sheep erythrocytes” for “sheep erytrocytes”, “Mice of” for “Mice in”, “response were analyzed” for “response was analysed”
as §2, with “compound 3” for “compound 11”, “Mice of” for “Mice in”, “with” for “with an”, “response were” for “response was”
(§3) 0.15 ml of compound 4 was administered intravenously to 6 female mice of the C57B1/6 line (weight 18-22 g) in a doses of 45.5, 91 and 136.5 μg of compound 4 per capita for each testing group according to the dose. Simultaneously, a suspension of 5·10^7 sheep erythrocytes was injected intraperitoneally (0.2 ml per capita). […]

Experiment [2] has as its system hemagglutinating antibodies in serum. The experiment in a line: Humoral immune response: titers of hemagglutinating antibodies in serum. Conditions: serum, female mice. The method, then: as §1, §2
as §2, with “12” for “11”, “erythrocytes” for “erytrocytes”, “analyzed” for “analysed”
as §2, with “compound 8” for “compound 11”, “sheep erythrocytes” for “sheep erytrocytes”, “Mice of” for “Mice in”, “response were analyzed” for “response was analysed”
as §2, with “compound 3” for “compound 11”, “Mice of” for “Mice in”, “with” for “with an”, “response were” for “response was”
as §3

In experiment [3] the test system is antibody-forming cells (AFC) in the spleen. In words: Influence of AFP/compound complexes and their components on humoral immune response (AFC in spleen). Conditions: for Dose at which immunostimulating effect in vivo is displayed: compound in a complex with AFP; for Immunogenic activity: compound alone. The method, then: 0.15 ml of AFP/Compound 3 complex was administered intravenously to 6 mice males of C57B1/6 line (weight 18-22 g) in the dose of […] of AFP and 45.5 μg of compound 3 per capita. Simultaneously suspension of 5·10^7 sheep erythrocytes was injected intraperitoneally (0.2 ml per capita). In the group with compound 3 mice were injected intravenously by one in the dose of 45.5 μg. Animals of group with AFP received 9 μg of AFP. Mice of control group were injected intravenously with equal volume of saline. Complex AFP/Compound 3 effect on humoral immune response was analyzed by counting the quantity of AFC in the spleen according to Cunningham (per 10^6 spleen cells and per spleen).
0.15 ml of AFP/Compound 2a complex (1:100) was administered intravenously to 6 mice males of C57B1/6 line (weight 18-22 g) in the dose of 9 μg of AFP and 45.5 μg of compound 2a per capita. Simultaneously, a suspension of 5·10^7 sheep erythrocytes was injected intraperitoneally (0.2 ml per capita). In the group with compound 2a mice were injected intravenously by one in the dose of 45.5 μg. Animals of group with AFP received 9 μg of AFP. Mice in the control group were injected intravenously with an equal volume of saline. The effect of the AFP/Compound 2a complex on humoral immune response was analyzed by counting the quantity of AFC in the spleen according to Cunningham (per 10^6 spleen cells and per spleen).
(§4) 0.15 ml of AFP/Compound 10 complex (1:200) was administered intravenously to 6 male mice of C57B1/6 line (weight 18-22 g) in the dose of 9 μg of AFP and 91 μg of compound 10 per capita. Simultaneously, a suspension of 5·10^7 sheep erythrocytes was injected intraperitoneally (0.2 ml per capita). In the group receiving compound 10 mice were injected intravenously by one in the dose of 91 μg. Animals in the group with AFP received 9 μg of AFP. Micein the control group were injected intravenously with an equal volume of saline. The effect of the AFP/Compound 10 complex on humoral immune response was analyzed by counting the quantity of AFC in the spleen according to Cunningham (per 10^6 spleen cells and per spleen).
as §4, with “AFP/Compound 14” for “AFP/Compound 10”, “compound 14” for “compound 10”, “group with” for “group receiving”, “Animals of” for “Animals in the”, “AFP. Mice in” for “AFP. Micein”
0.15 ml of AFP/Compound 7 complex (1:200) was administered intravenously to 6 male mice of C57B1/6 line (weight 18-22 g) in the dose of 9 μg of AFP and 91 μg of compound 7 per capita. Simultaneously, a suspension of 5·10^7 sheep erythrocytes was injected intraperitoneally (0.2 ml per capita). In the group with compound 7 mice were injected intravenously by one in the dose of 91 μg. Animals of group with AFP received 9 μg of AFP. Mice of control group were injected intravenously with equal volume of saline. AFP/Compound 7 complex effect on humoral immune response was analyzed by counting the quantity of AFC in the spleen according to Cunningham (per 10^6 spleen cells and per spleen).
0.15 ml of AFP/Compound 15 complex (1:200) was administered intravenously to 6 mice males of C57B1/6 line (weight 18-22 g) in the dose of 9 μg of AFP and 91 μg of compound 15 per capita. Simultaneously, a suspension of 5·10^7 sheep erythrocytes was injected intraperitoneally (0.2 ml per capita). In the group receiving compound 15, the mice were injected intravenously by one in the dose of 91 μg. Animals in the AFP-group received 9 μg of AFP. […]

As to `CC1=C(/C=C/C(C)=C/C=C/C(C)=C/C(=O)N[C@H](C(=O)O)[C@@H](C)OP(=O)(O)O)C(C)(C)CCC1` (relative stereo) [Compound 3, N-(all-trans-retinoyl)-o-phospho-L-threonine], the “Dose at which immunostimulating effect in vivo is displayed (micelle form)” value in experiment [1] came out at 91 μg/mouse. Also, the Amount of hemagglutinins turned out to be 6.6 ± 0.2 Log2 T in experiment [2] (45.5 μg/mouse i.v.), 8.0 ± 0.3 Log2 T in experiment [2] (91 μg/mouse i.v.) and 8.7 ± 0.3 Log2 T in experiment [2] (136.5 μg/mouse i.v.). In addition, the “Dose at which immunostimulating effect in vivo is displayed” value in experiment [3] is 45.5 μg/mouse.
Consider `CC1=C(/C=C/C(C)=C/C=C/C(C)=C\C(=O)N[C@@H](COP(=O)(O)O)C(=O)O)C(C)(C)CCC1` (stereo in doubt) [Compound 2a, N-(13-cis-retinoyl)-o-phospho-L-serine], for which the “Dose at which immunostimulating effect in vivo is displayed (micelle form)” value in experiment [1] is 91 μg/mouse. Moreover, the Amount of hemagglutinins in experiment [2] (45.5 μg/mouse i.v.) turned out to be 7.2 ± 0.3 Log2 T; in experiment [2] (91 μg/mouse i.v.) it was 7.5 ± 0.2 Log2 T; in experiment [2] (136.5 μg/mouse i.v.), 8.2 ± 0.4 Log2 T. In addition, the Immunogenic activity result in experiment [3] (45.5 μg/mouse) is recorded as “no immunogenic activity; also recorded: do not inhibit immunogenic activity”. Further, the “Dose at which immunostimulating effect in vivo is displayed” value in experiment [3] is recorded as 45.5 μg/mouse.
Consider `CC/C=C\C/C=C\C/C=C\C/C=C\C/C=C\C/C=C\CCC(=O)N[C@@H](COP(=O)(O)O)C(=O)O` [Compound 10, N-docosahexaenoyl-o-phospho-L-serine], for which the Amount of hemagglutinins in experiment [2] (45.5 μg/mouse i.v.) is recorded as 7.8 ± 0.3 Log2 T; in experiment [2] (91 μg/mouse i.v.), 7.8 ± 0.3 Log2 T; in experiment [2] (136.5 μg/mouse i.v.), 8.5 ± 0.4 Log2 T. For the same compound, the Immunogenic activity entry in experiment [3] (91 μg/mouse) is listed as “no immunogenic activity; also recorded: do not inhibit immunogenic activity”. For the same compound, the “Dose at which immunostimulating effect in vivo is displayed” value in experiment [3] was determined as 91 μg/mouse.
Turning to `CC/C=C\C/C=C\C/C=C\C/C=C\C/C=C\CCCC(=O)N[C@@H](COP(=O)(O)O)C(=O)O` [Compound 14, N-eicosapentaenoyl-o-phospho-L-serine], the Amount of hemagglutinins in experiment [2] (45.5 μg/mouse i.v.) is recorded as 6.5 ± 0.3 Log2 T; in experiment [2] (91 μg/mouse i.v.), 7.0 ± 0.3 Log2 T; in experiment [2] (136.5 μg/mouse i.v.) it was 7.2 ± 0.2 Log2 T. For the same compound, the Immunogenic activity entry in experiment [3] (91 μg/mouse) is recorded as “no immunogenic activity; also recorded: do not inhibit immunogenic activity”. Also, the “Dose at which immunostimulating effect in vivo is displayed” value in experiment [3] came out at 91 μg/mouse.
